Reference: patent US10131652B2, “Pyrimidinyloxy benzene derivatives as herbicides” (E. I. DU PONT DE NEMOURS AND COMPANY, priority 2014, dated 2018)

Experiments:
Format in all cases: in vivo
rice (Oryza sativa) = test: Test C flooded paddy test plant response; conditions: Flood, 250 g ai/ha; scale of 0 to 100 where 0 is no effect and 100 is complete control; 13 to 15 days
Outline: (§1)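 Plants grown to 2-leaf stage, flooded 3 cm above soil; compounds applied directly into paddy water, depth kept throughout. Visual rating versus controls after 13 to 15 days in greenhouse, 0 (no effect) to 100 (complete control).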

[1] = test system: small-flower umbrella sedge (Cyperus difformis); test: Test C flooded paddy test plant response; conditions: Flood, 250 g ai/ha; scale of 0 to 100 where 0 is no effect and 100 is complete control; 13 to 15 days
Outline: as §1

[2] = test system: barnyardgrass (Echinochloa crus-galli); test: Test C flooded paddy test plant response; conditions: Flood, 250 g ai/ha; scale of 0 to 100 where 0 is no effect and 100 is complete control; 13 to 15 days
Outline: as §1

[3] = test system: ducksalad (Heteranthera limosa); test: Test C flooded paddy test plant response; conditions: Flood, 250 g ai/ha; scale of 0 to 100 where 0 is no effect and 100 is complete control; 13 to 15 days
Outline: as §1

[4] = test system: galium (catchweed bedstraw, Galium aparine); test: Test B postemergence plant response
Outline: (§2)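 Injury was assessed visually about 10 days after treatment, scored from 0 (no effect) to 100 (complete control) by comparison with untreated controls. Test chemicals had been applied postemergence to potted plants at the one- to two-leaf stage, grown in loam soil and sand in a greenhouse.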

[5] = test system: blackgrass (Alopecurus myosuroides); test: Test B postemergence plant response
Outline: as §2

[6] = test system: ragweed (common ragweed, Ambrosia elatior); test: Test B pre-/postemergence plant response
From the text: (§3) Seeds of plant species selected from bamyardgrass (Echinochloa crus-galli), kochia (Kochia scoparia), ragweed (common ragweed, Ambrosia elatior), Italian ryegrass (Lolium multiflorum), large (Lg) crabgrass (Digitaria sanguinalis), giant foxtail (Setaria faberii), momingglory (Ipomoea spp.), pigweed (Amaranthus retroflexus), velvetleaf (Abutilon theophrasti), wheat (Triticum aestivum), and corn (Zea mays) were planted into a blend of loam soil and sand and treated preemergence with a directed soil spray using test chemicals formulated in a non-phytotoxic solvent mixture which included a surfactant. At the same time, plants selected from these crop and weed species and also blackgrass (Alopecurus myosuroides), and galium (catchweed bedstraw, Galium aparine) were planted in pots containing the same blend of loam soil and sand and treated with postemergence applications of test chemicals formulated in the same manner. Plants ranged in height from 2 to 10 cm and were in the one- to two-leaf stage for the postemergence treatment. Treated plants and untreated controls were maintained in a greenhouse for approximately 10 days, after which time all treated plants were compared to untreated controls and visually evaluated for injury. Plant response ratings, summarized in Table B, are based on a 0 to 100 scale where 0 is no effect and 100 is complete control. A dash (-) response means no test result.

corn (Zea mays) = test: Test B pre-/postemergence plant response
From the text: as §3

[7] = test system: Italian ryegrass (Lolium multiflorum); test: Test B pre-/postemergence plant response
From the text: as §3

[8] = test system: wheat (Triticum aestivum); test: Test B pre-/postemergence plant response
From the text: as §3

kochia (Kochia scoparia) = test: Test B pre-/postemergence plant response
From the text: as §3

[9] = test system: barnyardgrass (Echinochloa crus-galli); test: Test B pre-/postemergence plant response
From the text: as §3

[10] = test system: pigweed (Amaranthus retroflexus); test: Test B pre-/postemergence plant response
From the text: as §3

[11] = test system: giant foxtail (Setaria faberii); test: Test B pre-/postemergence plant response
From the text: as §3

[12] = 125 g ai/ha, postemergence, 0 to 100 scale, 0 no effect, 100 complete control
[13] = 31 g ai/ha, Postemergence, 0 to 100 scale, 0 no effect, 100 complete control
[14] = 31 g ai/ha, Preemergence, 0 to 100 scale where 0 is no effect and 100 is complete control
[15] = Preemergence, 125 g ai/ha, 0 to 100 scale (0 no effect, 100 complete control)
[16] = Postemergence, 500 g ai/ha, 0 to 100 scale (0 no effect, 100 complete control)
[17] = Preemergence, 500 g ai/ha, 0 to 100 scale where 0 is no effect and 100 is complete control

Row | Compound | Rice plant response rating (rice (Oryza sativa)) | Sedge, Umbrella plant response rating [1] | Barnyardgrass plant response rating [2] | Ducksalad plant response rating [3] | Plant response rating, Galium [4, 12] | Plant response rating, Blackgrass [5, 12] | Plant response rating, Ragweed [6, 12] | Ragweed plant response rating [6, 15] | Plant response rating, Corn (corn (Zea mays); [12]) | Plant response rating, Ryegrass, Italian [7, 12] | Ryegrass, Italian plant response rating [7, 15] | Plant response rating, Wheat [8, 12] | Plant response rating, Kochia (kochia (Kochia scoparia); [12]) | Kochia plant response rating (kochia (Kochia scoparia); [15]) | Plant response rating, Barnyardgrass [9, 12] | Barnyardgrass plant response rating [9, 15] | Plant response rating, Pigweed [10, 12] | Pigweed plant response rating [10, 15] | Plant response rating, Foxtail, Giant [11, 12] | Foxtail, Giant plant response rating [11, 15] | further results
1 | FC(F)(F)COCc1cc(-c2ccccc2Oc2ncc(Cl)cn2)on1 [Compound 128] | 0 | 0 | 0 | 0 | 30 | 20 | 10 | 0 | 10 | 0 | 0 | 0 | 50 | 0 | 10 | 0 | 60 | 40 | 10 | 10 | Plant response rating, Blackgrass [5, 13]: 0; Plant response rating, Ragweed [6, 14]: 0; Plant response rating, Corn (corn (Zea mays); [13]): 0; Plant response rating, Ryegrass, Italian [7, 14]: 0; Plant response rating, Kochia (kochia (Kochia scoparia); [14]): 0; Plant response rating, Barnyardgrass [9, 13]: 0; Plant response rating, Barnyardgrass [9, 14]: 0; Plant response rating, Pigweed [10, 14]: 0; Plant response rating, Foxtail, Giant [11, 13]: 0; Plant response rating, Foxtail, Giant [11, 14]: 0
2 | FC(F)(F)COCc1cc(-c2ccccc2Oc2ncc(Br)cn2)on1 [Compound 129] | 0 | 0 | 0 | 0 | 10 | 0 | 0 | 0 | 10 | 0 | 0 | 0 | 10 | 0 | 10 | 0 | 30 | 0 | 10 | 0 | Plant response rating, Blackgrass [5, 13]: 0; Plant response rating, Ragweed [6, 14]: 0; Plant response rating, Corn (corn (Zea mays); [13]): 0; Plant response rating, Ryegrass, Italian [7, 14]: 0; Plant response rating, Kochia (kochia (Kochia scoparia); [14]): 0; Plant response rating, Barnyardgrass [9, 13]: 0; Plant response rating, Barnyardgrass [9, 14]: 0; Plant response rating, Pigweed [10, 14]: 0; Plant response rating, Foxtail, Giant [11, 13]: 0; Plant response rating, Foxtail, Giant [11, 14]: 0
3 | FC(F)Oc1cccc(Oc2ncc(Cl)cn2)c1-c1cc(C(F)F)no1 [Compound 132] | 20 | 75 | 30 | 40 | 90 | 50 | 30 | 40 | 30 | 40 | 30 | 10 | 60 | 0 | 50 | 60 | 100 | 100 | 70 | 90 | Plant response rating, Blackgrass [5, 13]: 20; Plant response rating, Ragweed [6, 14]: 0; Plant response rating, Corn (corn (Zea mays); [13]): 10; Plant response rating, Ryegrass, Italian [7, 14]: 0; Plant response rating, Kochia (kochia (Kochia scoparia); [14]): 0; Plant response rating, Barnyardgrass [9, 13]: 20; Plant response rating, Barnyardgrass [9, 14]: 20; Plant response rating, Pigweed [10, 14]: 90; Plant response rating, Foxtail, Giant [11, 13]: 30; Plant response rating, Foxtail, Giant [11, 14]: 60
4 | FC(c1cc(-c2ccccc2Oc2ncc(Cl)cn2)no1)C(F)(F)F (stereo not drawn) [Compound 133] | 40 | 80 | 40 | 80 | 100 | 70 | 30 | 10 | 30 | 30 | 50 | 10 | 90 | 90 | 60 | 70 | 100 | 100 | 50 | 90 | Plant response rating, Blackgrass [5, 13]: 30; Plant response rating, Ragweed [6, 14]: 0; Plant response rating, Corn (corn (Zea mays); [13]): 10; Plant response rating, Ryegrass, Italian [7, 14]: 0; Plant response rating, Kochia (kochia (Kochia scoparia); [14]): 50; Plant response rating, Barnyardgrass [9, 13]: 20; Plant response rating, Barnyardgrass [9, 14]: 30; Plant response rating, Pigweed [10, 14]: 90; Plant response rating, Foxtail, Giant [11, 13]: 20; Plant response rating, Foxtail, Giant [11, 14]: 70
5 | FC(F)(F)c1csc(-c2ccccc2Oc2ncc(Cl)cn2)n1 [Compound 137] | 0 | 0 | 0 | 20 | 0 | 0 | 0 | 0 | 0 | 0 | 0 | 0 | 0 | 0 | 0 | 0 | 30 | 0 | 0 | 0 | Plant response rating, Galium [4, 16]: 20; Plant response rating, Blackgrass [5, 16]: 0; Plant response rating, Ragweed [6, 16]: 0; Plant response rating, Ragweed [6, 17]: 0; Plant response rating, Corn (corn (Zea mays); [16]): 20; Plant response rating, Ryegrass, Italian [7, 16]: 0; Plant response rating, Ryegrass, Italian [7, 17]: 0; Plant response rating, Wheat [8, 16]: 0; Plant response rating, Kochia (kochia (Kochia scoparia); [16]): 60; Plant response rating, Kochia (kochia (Kochia scoparia); [17]): 10; Plant response rating, Barnyardgrass [9, 16]: 10; Plant response rating, Barnyardgrass [9, 17]: 10; Plant response rating, Pigweed [10, 16]: 90; Plant response rating, Pigweed [10, 17]: 20; Plant response rating, Foxtail, Giant [11, 16]: 20; Plant response rating, Foxtail, Giant [11, 17]: 0
